Broadly, the pKi is the negative decadic logarithm of the Ki, by convention in mol/L.

pKi: −log10 of the molar value.

The target in one assay is mouse H3 receptor (Mus musculus, UniProt P58406). The assay is described as follows: Radioligand competition binding assay, mouse H3 receptor. The note with it: competition binding vs [3H]Nα-methylhistamine (~2 nM), membranes of cells expressing mouse H3 receptor. As to the method: (§1) Representative compounds of the present invention that were prepared by the procedures of the Examples were evaluated in binding assays against cells expressing the mouse and human H3 receptor by the following procedure.
Sequence of mouse H3 receptor (P58406 whole entry): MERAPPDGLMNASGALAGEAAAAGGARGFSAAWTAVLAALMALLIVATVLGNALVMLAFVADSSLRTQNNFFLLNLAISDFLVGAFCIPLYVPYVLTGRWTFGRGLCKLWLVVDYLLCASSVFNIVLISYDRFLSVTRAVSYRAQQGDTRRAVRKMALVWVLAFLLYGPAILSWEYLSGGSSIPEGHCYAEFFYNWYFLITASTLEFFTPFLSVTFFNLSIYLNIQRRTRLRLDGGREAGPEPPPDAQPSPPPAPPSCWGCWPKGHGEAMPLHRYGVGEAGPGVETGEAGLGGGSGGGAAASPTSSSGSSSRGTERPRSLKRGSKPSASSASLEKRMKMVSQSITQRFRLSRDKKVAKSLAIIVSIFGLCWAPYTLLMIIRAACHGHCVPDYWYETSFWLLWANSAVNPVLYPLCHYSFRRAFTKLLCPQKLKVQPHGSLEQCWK
(§2) Cells were washed with cold PBS buffer twice, scraped off the plates, and centrifuged at 1000×g for 5 minutes. Cells were resuspended in ice-cold buffer of 10 mM Tris, pH 7.4, 5 mM EDTA, protease inhibitor cocktail tablets (Roche Molecular Biochemicals) and incubated on ice for 10 minutes. The mixture was then homogenized with a dounce homogenizer or a polytron tissue grinder and centrifuged at 1000×g for 10 min at 4° C. The supernatant was centrifuged at 32,000×g for 30 min at 4° C. The membrane pellet was resuspended in a buffer of 50 mM Tris, pH 7.4 with protease inhibitor cocktail tablets and stored at −80° C. until use. Protein concentration was determined by the methods of Bradford.
(§3) Membranes were homogenized in buffer containing 50 mM Tris/HCl, 1 mM EDTA pH 7.4, and protease inhibitor cocktail tablets. Dissociation constants of radioligand (KD values) and maximum binding sites (Bmax) were determined in saturation binding experiments. Ki and IC50 were determined in competition binding assays using a fixed amount of radioligand.
(§4) Saturation binding assays were carried out in 96-well polypropylene plates in triplicate or quadruplicate. Reaction mixtures contained 100 μl of membrane suspension (˜100 μg/well), 50 μl of 4% DMSO, 50 μl of increasing amounts of [^3H]N^α-methylhistamine (final concentration of 0.01-20 nM). Nonspecific binding was defined with 10 uM clobenpropit. Competition binding assays were performed in a reaction mixture containing 100 μl of membrane suspension, 50 μl of [H]N^α-methylhistamine (final concentration of ˜2 nM), and 50 μl compounds. […] Incubations were carried out for 1.5 hours at room temperature. Reactions were terminated by rapid filtration over glass fibre GF/C filters (Perkin Elmers, MA) that had been presoaked in 0.3% PEI, using a Brandel cell harvester. The filters were washed with 500 ml of ice-cold buffer containing 50 mM Tris-HCl, pH 7.4, and were subsequently dried, impregnated with Meltilex wax scintillate (Perkin Elmers, MA) and counted with a Betaplate scintillation counter (Perkin Elmers, MA).
(§5) All data were analyzed by nonlinear least square curve fitting using Prism 4.0 software. The KD for [^3H]N^α-methylhistamine and the Bmax were derived from equation RL=RfL/(KD+L). RL is concentration of receptor-bound ligand at equilibrium, L is the free ligand concentration, Rf is the total receptor concentration. For competition binding experiments, IC50 (the concentration of compound producing 50% inhibition of specific binding) was derived from fitting to a 4-parameter logistic equation. Apparent Ki values were calculated using the Cheng-Prussof equation of Ki=IC50/(1+(L)/Kd), L is the ligand concentration. Agonist stimulation and antagonist inhibition in FLIPR were fitted to sigmoidal dose response using equation Y=Bottom+(Top-Bottom)/(1+10^((LogEC50-X))), X is the logarithm of concentration of compounds. Y is the response.
(Loss of bound radioactivity is the signal in a displacement assay; it reports binding, not function.)

The next assay deals with T1, human H3 receptor (Homo sapiens, UniProt Q9Y5N1).
T1 construct: Expression of this receptor was provided by utilization of the RAGE methodology; endogenous in cells; host or cells: HT1080 (human fibrosarcoma) cells, H3 expression switched on by RAGE; co-transfected with chimeric G-protein Gqαi5
T1 sequence (Q9Y5N1 whole entry): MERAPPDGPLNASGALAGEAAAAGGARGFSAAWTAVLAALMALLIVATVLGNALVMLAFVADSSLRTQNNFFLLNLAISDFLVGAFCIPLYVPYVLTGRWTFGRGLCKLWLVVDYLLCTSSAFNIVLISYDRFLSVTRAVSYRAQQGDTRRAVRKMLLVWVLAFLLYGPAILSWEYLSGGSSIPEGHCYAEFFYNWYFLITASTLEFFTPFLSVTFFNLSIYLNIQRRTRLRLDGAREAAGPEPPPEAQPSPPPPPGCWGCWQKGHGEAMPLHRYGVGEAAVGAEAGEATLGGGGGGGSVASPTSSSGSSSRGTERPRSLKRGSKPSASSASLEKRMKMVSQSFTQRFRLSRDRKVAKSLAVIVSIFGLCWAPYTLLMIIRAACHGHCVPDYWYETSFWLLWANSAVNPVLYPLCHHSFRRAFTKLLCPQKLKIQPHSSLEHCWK
The assay is described as follows: Radioligand competition binding assay, human H3 receptor (HT1080 cell membranes). The note with it: competition binding vs [3H]Nα-methylhistamine (~2 nM), membranes of HT1080 cells expressing human H3 receptor. As for the experimental part:
as §1
An HT1080 cell line was produced that expresses the human H3 receptor. Expression of this receptor was provided by utilization of the RAGE methodology (Harrington et al., 2001) Nature Biotechol. 19:440-5. This cell line was transfected with the chimeric G-protein Gqαi5 (Conklin et al., 1993) Nature 363:274-6 to facilitate assessment of receptor activation through the analysis of intercellular Ca^++ levels using a fluorescence assay. The HT1080 cells expressing human histamine H3 receptor and Gqαi5 were grown in alpha-modified MEM containing 10% FBS, 3 ug/ml puromycin, 7 ug/ml blasticidin, and 3.2 uM methotrexate at 37° C. in 5% CO2/95% atmosphere.
as §2, §3, §4, §5

Take `c1cc2nc3c(c(-c4ccc(OCCCN5CCCC5)cc4)n2n1)CCCC3` [9-[4-(3-Pyrrolidin-1-yl-propoxy)-phenyl]-5,6,7,8-tetrahydro-pyrazolo[5,1-b]quinazoline]: the pKi at mouse H3 receptor and at human H3 receptor was over 7.30 in each case.
Regarding `C[C@@H]1CCCN1CCc1cc2cc(-c3c4c(nc5ccnn35)CCC4)ccc2o1` [8-{2-[2-(2-(R)-Methyl-pyrrolidin-1-yl)-ethyl]-benzofuran-5-yl}-6,7-dihydro-5H-1,4,8a-triaza-s-indacene], the pKi at mouse H3 receptor and at human H3 receptor was over 7.30 each time.
As for `c1cc2nc3c(c(-c4ccc5oc(CCN6CCOCC6)cc5c4)n2n1)CCC3` [8-[2-(2-Morpholin-4-yl-ethyl)-benzofuran-5-yl]-6,7-dihydro-5H-1,4,8a-triaza-s-indacene], the negative-log Ki (pKi) was over 6.30 at mouse H3 receptor and over 7.30 on human H3 receptor.
As to `c1cc2nc3c(c(-c4ccc5oc(CCN6CCCCC6)cc5c4)n2n1)CCCC3` [9-[2-(2-Piperidin-1-yl-ethyl)-benzofuran-5-yl]-5,6,7,8-tetrahydro-pyrazolo[5,1-b]quinazoline], the negative logarithm of the Ki (pKi) on mouse H3 receptor was over 5.30; on human H3 receptor it was over 7.30.
As to `c1cc2nc3c(c(-c4ccc5oc(CCN6CCCCC6)cc5c4)n2n1)CCC3` [8-[2-(2-Piperidin-1-yl-ethyl)-benzofuran-5-yl]-6,7-dihydro-5H-1,4,8a-triaza-s-indacene], the results for the pKi on mouse H3 receptor and at human H3 receptor were over 6.30 and over 7.30, respectively.
As for `COC[C@@H]1CCCN1CCc1cc2cc(-c3c4c(nc5ccnn35)CCC4)ccc2o1` [8-{2-[2-(2-(S)-Methoxymethyl-pyrrolidin-1-yl)-ethyl]-benzofuran-5-yl}-6,7-dihydro-5H-1,4,8a-triaza-s-indacene], the pKi at mouse H3 receptor and at human H3 receptor was over 7.30 throughout.
Consider `c1cc2nc3c(c(-c4ccc5oc(CCN6CCCC6)cc5c4)n2n1)CCCC3` [9-[2-(2-Pyrrolidin-1-yl-ethyl)-benzofuran-5-yl]-5,6,7,8-tetrahydro-pyrazolo[5,1-b]quinazoline], for which the figures for the pKi at mouse H3 receptor and on human H3 receptor were over 5.30 and over 6.30, respectively.
The corresponding values for `c1cc2nc3c(c(-c4ccc(OCCCN5CCOCC5)cc4)n2n1)CCCC3` [9-[4-(3-Morpholin-4-yl-propoxy)-phenyl]-5,6,7,8-tetrahydro-pyrazolo[5,1-b]quinazoline] are over 7.30 and over 7.30.
For `C[C@@H]1CCCN1CCCOc1ccc(-c2c3c(nc4ccnn24)CCC3)cc1Cl` [8-{3-Chloro-4-[3-(2-(R)-methyl-pyrrolidin-1-yl)-propoxy]-phenyl}-6,7-dihydro-5H-1,4,8a-triaza-s-indacene] the same measures were over 7.30 and over 7.30.
For `CC1CCCN1CCCOc1ccc(-c2c3c(nc4ccnn24)CCC3)cc1` (centres unmarked) [8-{4-[3-(2-Methyl-pyrrolidin-1-yl)-propoxy]-phenyl}-6,7-dihydro-5H-1,4,8a-triaza-s-indacene] the same measures were over 7.30 and over 7.30.
On to `CN(CCCOc1ccc(-c2c3c(nc4ccnn24)CCCCC3)cc1)Cc1ccco1` [Furan-2-ylmethyl-methyl-{3-[4-(6,7,8,9-tetrahydro-5H-1,4,10a-triaza-cyclohepta[f]inden-10-yl)-phenoxy]-propyl}-amine], for which the pKi on mouse H3 receptor is over 6.30; at human H3 receptor, over 5.30.
The corresponding values for `c1cc2nc3c(c(-c4ccc(OCCCN5CCCCC5)cc4)n2n1)CCC3` [8-[4-(3-Piperidin-1-yl-propoxy)-phenyl]-6,7-dihydro-5H-1,4,8a-triaza-s-indacene] are over 7.30 and over 7.30.
For `CN(C)CCCOc1ccc(-c2c3c(nc4ccnn24)CCCC3)cc1` [Dimethyl-{3-[4-(5,6,7,8-tetrahydro-pyrazolo[5,1-b]quinazolin-9-yl)-phenoxy]-propyl}-amine] the same measures were over 6.30 and over 7.30.
On to `c1cc2nc3c(c(-c4ccc(OCCCN5CCCC5)cc4)n2n1)CCC3` [8-[4-(3-Pyrrolidin-1-yl-propoxy)-phenyl]-6,7-dihydro-5H-1,4,8a-triaza-s-indacene], for which the pKi at mouse H3 receptor and on human H3 receptor was over 7.30 each time.
Consider `c1cc2nc3c(c(-c4ccc(OCCCN5CCCCC5)cc4)n2n1)CCCCC3` [10-[4-(3-Piperidin-1-yl-propoxy)-phenyl]-6,7,8,9-tetrahydro-5H-1,4,10a-triaza-cyclohepta[f]indene], for which the pKi on mouse H3 receptor and at human H3 receptor was over 7.30 throughout.
Turning to `c1cc2nc3c(c(-c4ccc5oc(CCN6CCOCC6)cc5c4)n2n1)CCCC3` [9-[2-(2-Morpholin-4-yl-ethyl)-benzofuran-5-yl]-5,6,7,8-tetrahydro-pyrazolo[5,1-b]quinazoline], the pKi at mouse H3 receptor was over 6.30; on human H3 receptor, over 7.30.
`CCN(CC)CCCOc1ccc(-c2c3c(nc4ccnn24)CCCCC3)cc1` [Diethyl-{3-[4-(6,7,8,9-tetrahydro-5H-1,4,10a-triaza-cyclohepta[f]inden-10-yl)-phenoxy]-propyl}-amine]: the pKi was over 6.30 at mouse H3 receptor and over 7.30 on human H3 receptor.
Take `CC1CCCN1CCCOc1cccc(-c2c3c(nc4ccnn24)CCCCC3)c1` (centres unmarked) [10-{3-[3-(2-Methyl-pyrrolidin-1-yl)-propoxy]-phenyl}-6,7,8,9-tetrahydro-5H-1,4,10a-triaza-cyclohepta[f]indene]: on mouse H3 receptor, the pKi is over 5.30.
`C[C@@H]1CCCN1CCCOc1ccc(-c2c3c(nc4ccnn24)CCCC3)cc1` [9-{4-[3-(2-(R)-Methyl-pyrrolidin-1-yl)-propoxy]-phenyl}-5,6,7,8-tetrahydro-pyrazolo[5,1-b]quinazoline]: the pKi on mouse H3 receptor and on human H3 receptor was over 7.30 throughout.
`CC1CCCN1CCCOc1ccc(-c2c3c(nc4ccnn24)CCCC3)cc1` (centres unmarked) [9-{4-[3-(2-Methyl-pyrrolidin-1-yl)-propoxy]-phenyl}-5,6,7,8-tetrahydro-pyrazolo[5,1-b]quinazoline]: the negative logarithm of the Ki (pKi) at mouse H3 receptor and at human H3 receptor was over 7.30 throughout.
With `CN(C)CCCOc1ccc(-c2c3c(nc4ccnn24)CCC3)cc1` [{3-[4-(6,7-Dihydro-5H-1,4,8a-triaza-s-indacen-8-yl)-phenoxy]-propyl}-dimethyl-amine], the pKi is over 6.30 on mouse H3 receptor and over 7.30 on human H3 receptor.
For the compound `COCCNCCCOc1ccc(-c2c3c(nc4ccnn24)CCCCC3)cc1` [(2-Methoxy-ethyl)-{3-[4-(6,7,8,9-tetrahydro-5H-1,4,10a-triaza-cyclohepta[f]inden-10-yl)-phenoxy]-propyl}-amine], the pKi on mouse H3 receptor was over 5.30.
Take `c1cc2nc3c(c(-c4ccc(OCCCN5CCCCC5)cc4)n2n1)CCCC3` [9-[4-(3-Piperidin-1-yl-propoxy)-phenyl]-5,6,7,8-tetrahydro-pyrazolo[5,1-b]quinazoline]: the negative logarithm of the Ki (pKi) on mouse H3 receptor and on human H3 receptor was over 7.30 throughout.
Take `C[C@@H]1CCCN1CCCOc1ccc(-c2c3c(nc4ccnn24)CCCCC3)cc1` [10-{4-[3-(2-(R)-Methyl-pyrrolidin-1-yl)-propoxy]-phenyl}-6,7,8,9-tetrahydro-5H-1,4,10a-triaza-cyclohepta[f]indene]: the negative logarithm of the Ki (pKi) on mouse H3 receptor and on human H3 receptor was over 7.30 each time.
`CCN(CC)CCCOc1cccc(-c2c3c(nc4ccnn24)CCCCC3)c1` [Diethyl-{3-[3-(6,7,8,9-tetrahydro-5H-1,4,10a-triaza-cyclohepta[f]inden-10-yl)-phenoxy]-propyl}-amine]: on mouse H3 receptor, the pKi is over 5.30.

Source of the values: patent publication US7319103B2, “Non-imidazole tertiary amines as histamine 3 receptor inhibitors for the treatment of cognitive and sleep disorders, obesity and other CNS disorders” (Athersys, Inc., priority 2004, dated 2008).
